Results: patent publication US6720424B1, “Aminobenzoic acid derivatives” (Taisho Pharmaceutical Co., Ltd., priority 1999, dated 2004)
Like-named read-outs stand apart in the source and are kept apart here.

Key:
KDR = molecular target: T1, KDR (Homo sapiens, UniProt P35968); assay: (125I)-VEGF binding inhibition on NIH3T3 cells in which KDR was forced to be expressed; conditions: KDR-expressing NIH3T3 cells, (125I)-VEGF 25 pM, 90 minutes, read-out: IC50 (concentration of 50% binding inhibition)
T1 construct: expressed in transfected cells; host or cells: NIH3T3
Procedure: According to the method described in a document (Cell Growth & Differentiation, vol. 7, pp. 213-221, 1996), the following tests were carried out.
NIH3T3 cells in which Flt-1 was forced to be expressed were seeded on a 24-well collagen-coated plate (7×10^4/well), and were cultured in Dulbecco's modified Eagle's medium (DMEM) including 10% bovine serum and 200 μg/ml of Geneticin G418, for 24 hours at 37° C. under an atmosphere of 5% carbon dioxide gas. The cells were preincubated in Buffer A (including 10 mM HEPES (N-2-hydroxyethylpiperazine-N′-2-ethanesulfonic acid) and 0.1% BSA (bovine serum albumin) in DMEM), for 30 minutes at 4° C. Subsequently, the medium was replaced with Buffer B (including 10 mM HEPES and 0.5% BSA in DMEM). A test solution prepared by dissolving each of the test compounds shown in Table 19 in dimethylsulfoxide and subsequently diluting the solution into a prescribed concentration with Buffer B, and (^125I)-VEGF (the final concentration was set to 25 pM) were added thereto. Binding reaction was carried out for 90 minutes at […]. After completion of the reaction, the cells were washed three times with ice-cooled Buffer A. Subsequently, 0.5 ml of 0.5M NaOH were added to each well, and the cells were lysed in 30 minutes at room temperature. The radioactivity of the lysed cells in each well was measured by means of a gamma counter, and a total binding quantity of (^125I)-VEGF was calculated. Nonspecific binding quantity of (^125I)-VEGF was measured by competition assay in the presence of 10 nM non-labeled VEGF. The specific binding quantity of (^125I)-VEGF was calculated from the difference between the total binding quantity of (^125I)-VEGF and nonspecific binding quantity of (^125I)-VEGF.
The binding inhibition index of the test compounds was calculated by the following equation. [formula]
From this value, a concentration of 50% binding inhibition (IC50) of the test compound was calculated.
Test on each of the test compounds shown in Table 20 and Table 21 was carried out employing NIH3T3 cells in which KDR was forced to be expressed, in the same manner as described in Experimental Example 1 described above.

T1 sequence (P35968 20-1356): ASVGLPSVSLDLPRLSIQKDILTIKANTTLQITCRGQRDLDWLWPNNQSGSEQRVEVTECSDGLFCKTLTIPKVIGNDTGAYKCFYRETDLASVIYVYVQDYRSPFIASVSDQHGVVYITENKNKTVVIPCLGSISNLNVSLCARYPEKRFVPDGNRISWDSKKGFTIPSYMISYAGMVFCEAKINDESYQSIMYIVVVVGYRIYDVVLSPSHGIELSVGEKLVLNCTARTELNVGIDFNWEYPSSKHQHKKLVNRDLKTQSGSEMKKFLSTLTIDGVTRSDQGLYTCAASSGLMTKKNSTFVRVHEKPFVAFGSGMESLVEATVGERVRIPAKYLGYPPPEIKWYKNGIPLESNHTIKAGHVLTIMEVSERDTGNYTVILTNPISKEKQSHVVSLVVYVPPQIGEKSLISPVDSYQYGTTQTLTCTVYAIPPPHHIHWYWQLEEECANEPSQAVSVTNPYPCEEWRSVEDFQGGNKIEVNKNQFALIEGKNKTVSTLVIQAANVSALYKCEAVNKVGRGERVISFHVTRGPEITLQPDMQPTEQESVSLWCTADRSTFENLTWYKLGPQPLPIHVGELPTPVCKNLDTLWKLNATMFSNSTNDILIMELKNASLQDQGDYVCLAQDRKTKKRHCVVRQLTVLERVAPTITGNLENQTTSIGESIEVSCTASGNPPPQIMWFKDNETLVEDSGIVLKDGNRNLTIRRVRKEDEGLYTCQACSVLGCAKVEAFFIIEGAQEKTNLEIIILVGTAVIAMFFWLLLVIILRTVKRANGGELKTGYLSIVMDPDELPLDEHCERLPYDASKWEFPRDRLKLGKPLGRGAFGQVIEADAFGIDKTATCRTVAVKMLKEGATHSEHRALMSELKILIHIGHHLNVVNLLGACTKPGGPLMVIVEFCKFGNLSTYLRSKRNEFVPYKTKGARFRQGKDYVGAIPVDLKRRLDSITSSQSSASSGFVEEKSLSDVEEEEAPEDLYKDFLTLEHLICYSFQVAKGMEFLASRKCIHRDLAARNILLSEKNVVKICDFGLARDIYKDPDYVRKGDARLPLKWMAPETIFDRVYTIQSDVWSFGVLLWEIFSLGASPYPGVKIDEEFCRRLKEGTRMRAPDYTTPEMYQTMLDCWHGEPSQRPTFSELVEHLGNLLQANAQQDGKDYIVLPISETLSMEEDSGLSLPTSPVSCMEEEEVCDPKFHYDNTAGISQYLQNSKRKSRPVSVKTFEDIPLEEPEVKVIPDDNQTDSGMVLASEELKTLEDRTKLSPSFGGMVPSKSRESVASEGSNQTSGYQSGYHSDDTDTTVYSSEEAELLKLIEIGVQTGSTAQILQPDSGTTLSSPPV

Row | melting point [°C] | IC50 (KDR; Table 20) [nM] | IC50 (KDR; Table 21) [nM] | Structure (SMILES)
1 | 60 to 62 | – | – | CCCCCCCCCCCCCCCCCCOc1ccc(CCC(=O)N(C)c2ccc(Oc3ccc(C(=O)OC)cc3)c(C(=O)OC)c2)cc1 [Compound 22]
2 | 184 to 186 | 1190 | – | CCCCCCCCCCCCCCCCCCOc1ccc(CCC(=O)Nc2ccc(Oc3ccccc3C(=O)O)c(C(=O)O)c2)cc1 [Compound 29]
3 | 170 to 173 | 1230 | – | CCCCCCCCCCCCCCCCCCOc1ccc(CCC(=O)Nc2ccc(Oc3ccc(CC(=O)O)cc3)c(C(=O)O)c2)cc1 [Compound 31]
4 | 163 to 167 | 930 | – | CCCCCCCCCCCCCCCCCCOc1ccc(CCC(=O)Nc2ccc(Oc3cccc(CC(=O)O)c3)c(C(=O)O)c2)cc1 [Compound 32]
5 | 156 to 160 | 260 | – | CCCCCCCCCCCCCCCCCCOc1ccc(CCC(=O)Nc2ccc(Oc3ccc(CCC(=O)O)cc3)c(C(=O)O)c2)cc1 [Compound 33]
6 | 200 to 208 | 340 | – | CCCCCCCCCCCCCCCCCCOc1ccc(CCC(=O)Nc2ccc(Oc3ccc(/C=C/C(=O)O)cc3)c(C(=O)O)c2)cc1 [Compound 34]
7 | 215 to 225 | 200 | – | CCCCCCCCCCCCCCCCCCOc1ccc(CCC(=O)Nc2ccc(Oc3ccc4cc(C(=O)O)ccc4c3)c(C(=O)O)c2)cc1 [Compound 35]
8 | 212 to 216 | 1270 | – | CCCCCCCCCCCCCCCCCCOc1ccc(CCC(=O)Nc2cc(C(=O)O)ccc2Oc2cccc(C(=O)O)c2)cc1 [Compound 36]
9 | 214 to 219 | 710 | – | CCCCCCCCCCCCCCCCCCOc1ccc(CCC(=O)Nc2cc(C(=O)O)ccc2Oc2ccc3cc(C(=O)O)ccc3c2)cc1 [Compound 38]
10 | 198 to 203 | 370 | – | CCCCCCCCCCCCCCCCCCOc1ccc(CCC(=O)Nc2ccc(Sc3ccc(C(=O)O)cc3)c(C(=O)O)c2)cc1 [Compound 41]
11 | 194 to 198 | 450 | – | CCCCCCCCCCCCCCCCCCOc1ccc(CCC(=O)Nc2ccc(Sc3cccc(C(=O)O)c3)c(C(=O)O)c2)cc1 [Compound 42]
12 | 246 to 248 | 660 | – | CCCCCCCCCCCCCCCCCCOc1ccc(CCC(=O)Nc2cc(C(=O)O)ccc2Sc2cccc(C(=O)O)c2)cc1 [Compound 43]
13 | 221 to 223 | 910 | – | CCCCCCCCCCCCCCCCCCOc1ccc(CCC(=O)Nc2ccc(Sc3ccc(C(=O)O)cn3)c(C(=O)O)c2)cc1 [Compound 44]
14 | 230 to 235 | 760 | – | CCCCCCCCCCCCCCCCCCOc1ccc(CCC(=O)Nc2ccc(Nc3ccc(C(=O)O)cc3)c(C(=O)O)c2)cc1 [Compound 45]
15 | 235 to 240 | 400 | – | CCCCCCCCCCCCCCCCCCOc1ccc(CCC(=O)Nc2ccc(Nc3cccc(C(=O)O)c3)c(C(=O)O)c2)cc1 [Compound 46]
16 | 247 to 252 | 940 | – | CCCCCCCCCCCCCCCCCCOc1ccc(CCC(=O)Nc2ccc(Nc3ccccc3C(=O)O)c(C(=O)O)c2)cc1 [Compound 47]
17 | 65.5 to 66.5 | – | – | CCCCCCCCCCCCCCCCCCOc1ccc(CCC(=O)N(C)c2ccc(SC)c(C(=O)OC)c2)cc1 [Compound 90]
18 | 60 to 69 | – | – | CCCCCCCCCCCCCCCCCCOc1ccc(CC(=O)N(C)c2ccc(SC)c(C(=O)OC)c2)cc1 [Compound 91]
19 | 102 to 106 | – | – | CCCCCCCCCCCCCCCCCCOc1ccc(CCC(=O)N(CC(=O)O)c2ccc(SC)c(C(=O)OC)c2)cc1 [Compound 102]
20 | 165 to 167 | – | – | CCCCCCCCCCNC(=O)[C@H](CC(=O)O)NC(=O)CCCOc1ccc(CCC(=O)Nc2ccc(SC)c(C(=O)OC)c2)cc1 [Compound 105]
21 | 65 to 67 | – | – | CCCCCCCCCCCCCCCCCCOc1ccc(CCC(=O)Nc2ccc([S+](C)[O-])c(C(=O)OC)c2)cc1 (stereo not drawn) [Compound 106]
22 | 92.5 to 94 | – | – | CCCCCCCCCCCCCCCCCCOc1ccc(CC(=O)N(C)c2ccc(SCCO)c(C(=O)OC)c2)cc1 [Compound 109]
23 | 185 to 194 | – | 150 | CCCCCCCCCCCCCCCCCCOc1ccc(CCC(=O)Nc2ccc(SC)c(C(=O)O)c2)cc1 [Compound 115]
24 | 200 to 204 | – | 160 | CCCCCCCCCCCCCCCCCCOc1ccc(CC(=O)Nc2ccc(SC)c(C(=O)O)c2)cc1 [Compound 116]

Row | melting point [°C] | IC50 (KDR; Table 20) [nM] | IC50 (KDR; Table 21) [nM] | Structure (SMILES)
25 | 211 to 213 | – | 320 | CCCCCCCCCCCCCCCCCCCCOc1ccc(CCC(=O)Nc2ccc(SC)c(C(=O)O)c2)cc1 [Compound 117]
26 | 209 to 212 | – | 1580 | CCCCCCCCCCCCCCCCCCCCCCOc1ccc(CCC(=O)Nc2ccc(SC)c(C(=O)O)c2)cc1 [Compound 118]
27 | 174 to 176 | – | 290 | CCCCCCCCCCCCCCCCCCOc1ccc(CCC(=O)Nc2ccc(SC)c(C(=O)O)c2)cc1OC [Compound 119]
28 | 257 to 260 | – | 440 | CCCCCCCCCCCCCCCCCC(=O)Nc1ccc(CCC(=O)Nc2ccc(SC)c(C(=O)O)c2)cc1 [Compound 120]
29 | 200 to 205 | – | 1160 | CCCCCCCCCCCCCCCCOc1ccc(CC(=O)Nc2ccc(SC)c(C(=O)O)c2)cc1 [Compound 127]
30 | 214 to 217 | – | 230 | CCCCCCCCCCCCCCCCCC(=O)Nc1ccc(CC(=O)Nc2ccc(SC)c(C(=O)O)c2)cc1 [Compound 130]
31 | 224 to 228 | – | 310 | CCCCCCCCCCCCCCCCCC(=O)Nc1cccc(CC(=O)Nc2ccc(SC)c(C(=O)O)c2)c1 [Compound 131]
32 | 247 to 250 | – | 1660 | CCCCCCCCCCCCCCCCCC(=O)Nc1ccccc1CC(=O)Nc1ccc(SC)c(C(=O)O)c1 [Compound 132]
33 | 165 to 169 | – | 160 | CCCCCCCCCCCCCCCCCCOc1ccc(OCC(=O)Nc2ccc(SC)c(C(=O)O)c2)cc1 [Compound 133]
34 | 197 to 202 | – | 120 | CCCCCCCCCCCCCCCCOc1ccc(OCCCC(=O)Nc2ccc(SC)c(C(=O)O)c2)cc1 [Compound 134]
35 | 199 to 202 | – | 450 | CCCCCCCCCCCCCCOc1ccc(OCCCCCC(=O)Nc2ccc(SC)c(C(=O)O)c2)cc1 [Compound 135]
36 | 193 to 196 | – | 400 | CCCCCCCCCCCCOc1ccc(OCCCCCCCC(=O)Nc2ccc(SC)c(C(=O)O)c2)cc1 [Compound 136]
37 | 185 to 188 | – | 460 | CCCCCCCCCCOc1ccc(OCCCCCCCCCC(=O)Nc2ccc(SC)c(C(=O)O)c2)cc1 [Compound 137]
38 | 180 to 185 | – | 430 | CCCCCCCCOc1ccc(OCCCCCCCCCCCC(=O)Nc2ccc(SC)c(C(=O)O)c2)cc1 [Compound 138]
39 | 149 to 153 | – | 760 | CCCCCCCCCCCCCCCCCCOc1ccc(CC(=O)Nc2ccc(SCC)c(C(=O)O)c2)cc1 [Compound 143]
40 | 216 to 219 | – | 1290 | CCCCCCCCCCCCCCCCCCOc1ccc(CCC(=O)Nc2cc(C(=O)O)ccc2SC)cc1 [Compound 145]
41 | 174 to 177 | – | 630 | CCCCCCCCCCCCCCCCCCOc1ccc(CCC(=O)Nc2cc(C(=O)O)ccc2SCC)cc1 [Compound 146]
42 | 150 to 152 | – | 570 | CCCCCCCCCCCCCCCCCCOc1ccc(CCC(=O)Nc2cc(C(=O)O)ccc2SCCC)cc1 [Compound 147]
43 | 178 to 181 | – | 930 | CCCCCCCCCCCCCCCCCCOc1ccc(CCC(=O)Nc2cc(C(=O)O)ccc2SCc2ccccc2)cc1 [Compound 148]
44 | 108 to 110 | – | 140 | CCCCCCCCCCCCCCCCCCOc1ccc(CCC(=O)N(CC)c2ccc(SC)c(C(=O)O)c2)cc1 [Compound 149]
45 | 126 to 128 | – | 590 | CCCCCCCCCCCCCCCCCCOc1ccc(CCC(=O)N(CC2CC2)c2ccc(SC)c(C(=O)O)c2)cc1 [Compound 150]
46 | 127 to 129 | – | 800 | CCCCCCCCCCCCCCCCCCOc1ccc(CCC(=O)N(Cc2ccccc2)c2ccc(SC)c(C(=O)O)c2)cc1 [Compound 151]
47 | 156 to 157 | – | 250 | CCCCCCCCCCCCCCCCCCOc1ccc(C=CC(=O)N(C)c2ccc(SC)c(C(=O)O)c2)cc1 [Compound 153]
